The structures appear in SMILES notation.

Test [1] deals with Cucurbit Leaf Beetle (Aulacophora Femoralis). In words: Test against cucurbit leaf beetle (Aulacophora femoralis), leaf dip. As to conditions: active compound concentration of 100 ppm, second instar larvae, after 7 days. It is filed as in vivo. The method, then: (§1) Solvent: 3 parts by weight of dimethylformamide
(§2) Emulsifier: 1 part by weight of polyoxyethylene alkyl phenyl ether
Leaves of cucumber were immersed in the test solution at the appropriate concentration, and the leaves were dried in air. The leaves were then put in a plastic cup containing sterilized black soil and five Aulacophora femoralis at second instar larvae were released in the cup. The cups were placed in a temperature-controlled chamber at 25° C. After 7 days, the number of dead larvae was counted, and thus the insecticidal activity was calculated. An insecticidal activity of 100% means that all larvae were killed, whereas an insecticidal activity of 0% means that no larva was killed.

Test [2] has as its system Tobacco Cutworm (Spodoptera litura) Larvae. In words: Test against tobacco cutworm (Spodoptera litura) larvae, leaf dip. It is filed as in vivo. The conditions noted are these: active compound concentration of 100 ppm, third instar larvae, after 7 days. The method, then:
as §1, §2
Leaves of sweet potato were immersed in the test solution at the appropriate concentration, and the leaves were dried in air. The leaves were then placed in a petri dish having a diameter of 9 cm, and ten Spodoptera litura at third instar larvae were released therein. The petri dishes were placed in a temperature-controlled chamber at 25° C. After 2 days and 4 days more sweet potato leaves were added. After 7 days, the number of dead larvae was counted to calculate the insecticidal activity. An insecticidal activity of 100% means that all larvae were killed, whereas an insecticidal activity of 0% means that no larva was killed.

As for `CCC(=O)NCc1ccc(C(=O)Nc2c(Cl)cc(C(F)(C(F)(F)F)C(F)(F)C(F)(F)F)cc2Cl)cc1` (stereo not drawn) [Compound 5-323], the insecticidal activity in test [1] and in test [2] was 100% throughout.

Take `CCC(=O)NCc1cc(F)c(C(=O)Nc2c(C)cc(C(F)(C(F)(F)F)C(F)(F)F)cc2CC)cc1F` [Compound 5-59]: the insecticidal activity in test [1] and in test [2] was 100% each time.

For `CCc1cc(C(F)(C(F)(F)F)C(F)(F)F)cc(C)c1NC(=O)c1ccc(CNC(=O)CC(F)(F)F)c2ccccc12` [Compound 6-6], the insecticidal activity in test [1] and in test [2] was 100% throughout.

Regarding `CCC(=O)NCc1ccc(C(=O)Nc2c(C)cc(C(F)(C(F)(F)F)C(F)(F)F)cc2C)c(F)c1` [Compound 5-22], the insecticidal activity in test [1] and in test [2] was 100% in each case.

Consider `CCc1cc(C(F)(C(F)(F)F)C(F)(F)C(F)(F)F)cc(C)c1NC(=O)c1ccc(CNC(=O)CC2CC2)c(F)c1F` (stereo not drawn) [Compound 5-204], for which the insecticidal activity in test [1] and in test [2] was 100% each time.

`CCc1cc(C(F)(C(F)(F)F)C(F)(F)F)cc(C)c1NC(=O)c1ccc(CNC(=O)CS(C)(=O)=O)c(Br)c1` [Compound 5-178]: the insecticidal activity in test [1] and in test [2] was 100% throughout.

With `CCc1cc(C(F)(C(F)(F)F)C(F)(F)C(F)(F)F)cc(C)c1NC(=O)c1ccc(CNC(=O)c2cccnc2Cl)c(F)c1F` (stereo not drawn) [Compound 5-206], the insecticidal activity in test [1] and in test [2] was 100% in each case.

As to `CCc1cc(C(F)(C(F)(F)F)C(F)(F)C(F)(F)F)cc(C)c1NC(=O)c1ccc(CNC(=O)CC(F)(F)F)c(I)c1` (stereo not drawn) [Compound 5-198], the insecticidal activity in test [1] and in test [2] was 100% in each case.

Regarding `CCc1cc(C(F)(C(F)(F)F)C(F)(F)F)cc(C)c1NC(=O)c1ccc(-n2cncn2)nc1` [Compound 4-2], the insecticidal activity in test [1] and in test [2] was 100% throughout.

As to `CCc1cc(C(F)(C(F)(F)F)C(F)(F)F)cc(C)c1NC(=O)c1ccc(CNC(=O)C2CC2)c(Cl)c1` [Compound 5-79], the insecticidal activity in test [1] and in test [2] was 100% each time.

As for `CCc1cc(C(F)(C(F)(F)F)C(F)(F)F)cc(C)c1NC(=O)c1ccc(-n2cncn2)c2ccccc12` [Compound 2-2], the insecticidal activity in test [1] and in test [2] was 100% in each case.

In the case of `O=C(Nc1c(Cl)cc(C(F)(C(F)(F)F)C(F)(F)F)cc1Cl)c1ccc(CNC(=O)C2CC2)c(Cl)c1` [Compound 5-231], the insecticidal activity in test [1] and in test [2] was 100% in each case.

Turning to `CCc1cc(C(F)(C(F)(F)F)C(F)(F)F)cc(C)c1NC(=O)c1ccc(CNC(=O)CC2CC2)cc1F` [Compound 5-46], the insecticidal activity in test [1] and in test [2] was 100% throughout.

`Cc1cc(C(F)(C(F)(F)F)C(F)(F)F)cc(C)c1NC(=O)c1ccc(CNC(=O)CC2CC2)cc1` [Compound 5-8]: the insecticidal activity in test [1] and in test [2] was 100% throughout.

Regarding `CCc1cc(C(F)(C(F)(F)F)C(F)(F)F)cc(C)c1NC(=O)c1ccc(C(C)NC(=O)CC(F)(F)F)cc1` (stereo not drawn) [Compound 9-6], the insecticidal activity in test [1] and in test [2] was 100% in each case.

With `CCc1cc(C(F)(C(F)(F)F)C(F)(F)F)cc(C)c1NC(=O)c1ccc(CNC(=O)c2ccccc2F)cc1` [Compound 5-34], the insecticidal activity in test [1] and in test [2] was 100% each time.

As for `CC(=O)NCc1ccc(C(=O)Nc2c(Cl)cc(C(F)(C(F)(F)F)C(F)(F)F)cc2Cl)cc1Cl` [Compound 5-229, 4-(acetamidemethyl)-3-chloro-N-[2,6-dichloro-4-(1,1,1,2,3,3,3-heptafluoropropan-2-yl)phenyl]benzamide], the pest or weed control at 100 ppm is 100% in test [1] (Aulacophora, foliar, 168 h, read-out: insecticidal activity) and 100% in test [2] (Spodoptera litura, foliar, 168 h, read-out: insecticidal activity).

Consider `CCc1cc(C(F)(C(F)(F)F)C(F)(F)F)cc(C)c1NC(=O)c1ccc(CNC(C)=O)nc1` [Compound 8-2], for which the insecticidal activity in test [1] and in test [2] was 100% each time.

As for `CCc1cc(C(F)(C(F)(F)F)C(F)(F)F)cc(C)c1NC(=O)c1ccc(CNC(=O)C[S+](C)[O-])c(Br)c1` (stereo not drawn) [Compound 5-177], the insecticidal activity in test [1] and in test [2] was 100% throughout.

Take `CCC(=O)NCc1ccc(C(=O)Nc2c(C)cc(C(F)(C(F)(F)F)C(F)(F)F)cc2CC)c(F)c1` [Compound 5-45]: the insecticidal activity in test [1] and in test [2] was 100% throughout.

For `CCC(=O)NCc1ccc(C(=O)Nc2c(C)cc(C(F)(C(F)(F)F)C(F)(F)F)cc2CC)cc1C` [Compound 5-100], the insecticidal activity in test [1] and in test [2] was 100% in each case.

Turning to `CCC(=O)NCc1ccc(C(=O)Nc2c(C)cc(C(F)(C(F)(F)F)C(F)(F)C(F)(F)F)cc2CC)cc1F` (stereo not drawn) [Compound 5-145], the insecticidal activity in test [1] and in test [2] was 100% in each case.

Regarding `CCc1cc(C(F)(C(F)(F)F)C(F)(F)F)cc(C)c1NC(=O)c1ccc(CNC(C)=O)cn1` [Compound 7-2], the insecticidal activity in test [1] and in test [2] was 100% throughout.

`CC(=O)NCc1ccc(C(=O)Nc2c(C)cc(C(F)(C(F)(F)F)C(F)(F)F)cc2C)c(F)c1` [Compound 5-21]: the insecticidal activity in test [1] and in test [2] was 100% each time.

`CCc1cc(C(F)(C(F)(F)F)C(F)(F)C(F)(F)F)cc(C)c1NC(=O)c1ccc(CNC(C)=O)c(F)c1` (stereo not drawn) [Compound 5-144]: the insecticidal activity in test [1] and in test [2] was 100% in each case.

For `CCc1cc(C(F)(C(F)(F)F)C(F)(F)C(F)(F)F)cc(C)c1NC(=O)c1ccc(CNC(C)=O)c(F)c1F` (stereo not drawn) [Compound 5-201], the insecticidal activity in test [1] and in test [2] was 100% each time.

As for `CCc1cc(C(F)(C(F)(F)F)C(F)(F)C(F)(F)F)cc(C)c1NC(=O)c1ccc(CNC(=O)C2CC2)c(F)c1F` (stereo not drawn) [Compound 5-203], the insecticidal activity in test [1] and in test [2] was 100% throughout.

In the case of `CCc1cc(C(F)(C(F)(F)F)C(F)(F)C(F)(F)F)cc(C)c1NC(=O)c1ccc(CNC(=O)C2CC2)c(Cl)c1` (stereo not drawn) [Compound 5-152], the insecticidal activity in test [1] and in test [2] was 100% throughout.

As to `CCc1cc(C(F)(C(F)(F)F)C(F)(F)F)cc(C)c1NC(=O)c1ccc(CNC(C)=O)c(F)c1F` [Compound 5-51], the insecticidal activity in test [1] and in test [2] was 100% in each case.

On to `CCc1cc(C(F)(C(F)(F)F)C(F)(F)F)cc(C)c1NC(=O)c1ccc2c(c1)CCC2NC(=O)CSC` (stereo not drawn) [Compound 10-22], for which the insecticidal activity in test [1] and in test [2] was 100% each time.

Turning to `CCC(=O)NCc1ccc(C(=O)Nc2c(C)cc(C(F)(C(F)(F)F)C(F)(F)C(F)(F)F)cc2C)cc1Br` (stereo not drawn) [Compound 5-212], the insecticidal activity in test [1] and in test [2] was 100% throughout.

Consider `CC(=O)NCc1ccc(C(=O)Nc2c(C)cc(C(F)(C(F)(F)F)C(F)(F)C(F)(F)F)cc2C)cc1Br` (stereo not drawn) [Compound 5-211], for which the insecticidal activity in test [1] and in test [2] was 100% throughout.

Turning to `CCc1cc(C(F)(C(F)(F)F)C(F)(F)C(F)(F)F)cc(C)c1NC(=O)c1ccc(CNC(=O)CC(F)(F)F)c(F)c1F` (stereo not drawn) [Compound 5-205], the insecticidal activity in test [1] and in test [2] was 100% throughout.

As to `O=C(Nc1c(Cl)cc(C(F)(C(F)(F)F)C(F)(F)C(F)(F)F)cc1Cl)c1ccc(CNC(=O)C2CC2)cc1` (stereo not drawn) [Compound 5-326], the insecticidal activity in test [1] and in test [2] was 100% throughout.

As to `O=C(CC(F)(F)F)NCc1ccc(C(=O)Nc2c(Cl)cc(C(F)(C(F)(F)F)C(F)(F)C(F)(F)F)cc2Cl)cc1` (stereo not drawn) [Compound 5-324], the insecticidal activity in test [1] and in test [2] was 100% each time.

With `CCc1cc(C(F)(C(F)(F)F)C(F)(F)F)cc(C)c1NC(=O)c1cc(F)c(CNC(=O)c2cccnc2Cl)cc1F` [Compound 5-183], the insecticidal activity in test [1] and in test [2] was 100% throughout.

Regarding `CCc1cc(C(F)(C(F)(F)F)C(F)(F)F)cc(C)c1NC(=O)c1ccc(CNS(C)(=O)=O)c(Br)c1` [Compound 5-96], the insecticidal activity in test [1] and in test [2] was 100% each time.

With `CCc1cc(C(F)(C(F)(F)F)C(F)(F)C(F)(F)F)cc(C)c1NC(=O)c1ccc(CNC(=O)CC(F)(F)F)c(Br)c1` (stereo not drawn) [Compound 5-161], the insecticidal activity in test [1] and in test [2] was 100% each time.

On to `CCC(=O)NCc1ccc(C(=O)Nc2c(C)cc(C(F)(C(F)(F)F)C(F)(F)C(F)(F)F)cc2CC)c(F)c1F` (stereo not drawn) [Compound 5-202], for which the insecticidal activity in test [1] and in test [2] was 100% throughout.

These data come from patent US9227923B2, “Pesticidal carboxamides” (Bayer Intellectual Property GmbH, priority 2009, dated 2016).
